In patent publication US8658800B2 (priority 2010, dated 2014):

Key:
[1] = logP by HPLC on reversed-phase columns (C 18), EEC Directive 79/831 Annex V.A8; type: physicochemical; conditions: reversed-phase C18 HPLC column; HPLC, reversed-phase C 18, acidic range pH 2.7, 0.1% aqueous formic acid/acetonitrile; read-out: log P
Method: The logP values reported in the table above and in the Preparation Examples were determined in accordance with EEC Directive 79/831 Annex V.A8 by HPLC (High Performance Liquid Chromatography) on reversed-phase columns (C 18), with the following methods:
The LC-MS determination in the acidic range is carried out at pH 2.7 using the mobile phases 0.1% aqueous formic acid and acetonitrile (contains 0.1% formic acid), linear gradient from 10% acetonitrile to 95% acetonitrile
Calibration was carried out using unbranched alkan-2-ones (having from 3 to 16 carbon atoms) with known logP values (the logP values were determined by the retention times using linear interpolation between two successive alkanones).

[2] = system: caterpillars of the armyworm (Spodoptera frugiperda); test: Spodoptera frugiperda test (SPODFR spray treatment); type: in vivo; conditions: foliar, 168 h, sprayed maize leaf discs, after 7 days, read-out: activity (kill of caterpillars)
Method: Spodoptera frugiperda Test (SPODFR Spray Treatment)
Solvents: 78.0 parts by weight of acetone
(§1) • 1.5 parts by weight of dimethylformamide Emulsifier: 0.5 part by weight of alkylaryl polyglycol ether
(§2) To produce a suitable preparation of active compound, 1 part by weight of active compound is mixed with the stated amount of solvents and emulsifier, and the concentrate is diluted with emulsifier-containing water to the desired concentration.
Discs of maize leaves (Zea mays) are sprayed with an active compound preparation of the desired concentration and, after drying, populated with caterpillars of the armyworm (Spodoptera frugiperda).
After 7 days, the effect in % is determined. 100% means that all caterpillars have been killed; 0% means that none of the caterpillars have been killed.

[3] = system: larvae of the mustard beetle (Phaedon cochleariae); test: Phaedon test (PHAECO spray treatment); type: in vivo; conditions: 168 h, sprayed Chinese cabbage discs, after 7 days, read-out: activity (kill of beetle larvae)
Method: Phaedon Test ([…] Spray Treatment) Solvents: 78.0 parts by weight of acetone • • 1.5 parts by weight of dimethylformamide Emulsifier: 0.5 part by weight of alkylaryl polyglycol ether To produce a suitable preparation of active compound, 1 part by weight of active compound is mixed with the stated amount of solvents and emulsifier, and the concentrate is diluted with emulsifier-containing water to the desired concentration. Discs of Chinese cabbage (Brassica pekinensis) are sprayed with an active compound preparation of the desired concentration and, after drying, populated with larvae of the mustard beetle (Phaedon cochleariae).

[4] = system: green peach aphid (Myzus persicae); test: Myzus test (MYZUPE spray treatment); type: in vivo; conditions: 144 h, sprayed Chinese cabbage discs, after 6 days, read-out: activity (kill of aphids)
Method: Myzus Test (MYZUPE Spray Treatment)
Solvents: 78 parts by weight of acetone
as §1, §2
Discs of Chinese cabbage (Brassica pekinensis) infested by all stages of the green peach aphid (Myzus persicae) are sprayed with an active compound preparation of the desired concentration.
After 6 days, the effect in % is determined. 100% means that all of the aphids have been killed; 0% means that none of the aphids have been killed.

Lucilia cuprina larvae = test: Lucilia cuprina test (LUCICU); type: in vivo; conditions: 100 ppm, treated horse meat, after 2 days
Method: Lucilia cuprina Test (LUCICU)
(§3) Solvent: dimethyl sulphoxide
(§4) To produce a suitable preparation of active compound, 10 mg of active compound are mixed with 0.5 ml of dimethyl sulphoxide and the concentrate is diluted with water to the desired concentration.
Vessels containing horse meat treated with the active compound of the desired concentration are populated with about 20 Lucilia cuprina larvae.
After 2 days, the kill in % is determined 100% means that all of the larvae have been killed; 0% means that none of the larvae have been killed.

adult Musca domestica = test: Musca domestica test (MUSCDO); type: in vivo; conditions: treated sponge, after 2 days
Method: Musca domestica Test (MUSCDO)
as §3, §4
Vessels containing a sponge treated with the active compound preparation of the desired concentration are populated with adult Musca domestica.
After 2 days, the kill in % is determined 100% means that all of the flies have been killed; 0% means that none of the flies have been killed.

Boophilus microplus = Boophilus microplus test (BOOPMI injection); type: in vivo; conditions: 10 μg/animal, injection into the abdomen, after 7 days
Method: Boophilus microplus Test (BOOPMI Injection)
as §3
To produce a suitable preparation of active compound, 10 mg of active compound are mixed with 0.5 ml of solvent and the concentrate is diluted with solvent to the desired concentration.
The active compound solution is injected into the abdomen (Boophilus microplus), and the animals are transferred into dishes and stored in a climate-controlled room. The activity is assessed by […] of fertile eggs.
After 7 days, the effect in % is determined 100% means that none of the ticks has laid any fertile eggs.

chromatographic logP [1]	SMILES	pest or weed control at 100 g/ha [2]	pest or weed control at 100 g/ha [3]	pest or weed control at 100 g/ha [4]	efficacy (kill) (Lucilia cuprina larvae)	efficacy (kill) (adult Musca domestica; 100 ppm)	activity (100% = none of the ticks has laid any fertile eggs) (Boophilus microplus)	efficacy (kill) (adult Musca domestica; 20 ppm)	pest or weed control at 500 g/ha ([2]; 500 g/ha)	pest or weed control at 500 g/ha ([3]; 500 g/ha)
2.85	Cc1cc(C#N)cc(OC(F)F)c1NC(=O)c1cc(Cn2nnc(C(F)(F)F)n2)nn1-c1ncccc1Cl [Compound 9]	100%	100%	90%	100%	80%				
3.05	Cc1cc(Cl)cc(C(=O)O)c1NC(=O)c1cc(Cn2nnc(C(F)(F)F)n2)nn1-c1ncccc1Cl [Compound 30]	83%		80%						
2.65	Cc1cc(C#N)cc(C(=O)O)c1NC(=O)c1cc(Cn2nnc(C(F)(F)F)n2)nn1-c1ncccc1Cl [Compound 14]	100%		80%						
3.77	Cc1cc(Br)cc(OC(F)F)c1NC(=O)c1cc(Cn2nnc(C(F)(F)F)n2)nn1-c1ncccc1Cl [Compound 8]	100%	100%		100%					
3.75	Cc1cc(C#N)cc(C(=S)NC(C)(C)C)c1NC(=O)c1cc(Cn2nnc(C(F)(F)F)n2)nn1-c1ncccc1Cl [Compound 31]	83%	100%	90%						

More lines, now with the values behind:

SMILES	chromatographic logP [1]	pest or weed control at 100 g/ha [2]	pest or weed control at 100 g/ha [3]	pest or weed control at 100 g/ha [4]	efficacy (kill) (Lucilia cuprina larvae)	efficacy (kill) (adult Musca domestica; 100 ppm)	activity (100% = none of the ticks has laid any fertile eggs) (Boophilus microplus)	efficacy (kill) (adult Musca domestica; 20 ppm)	pest or weed control at 500 g/ha ([2]; 500 g/ha)	pest or weed control at 500 g/ha ([3]; 500 g/ha)
Cc1cc(I)cc(C(=O)O)c1NC(=O)c1cc(Cn2nnc(C(F)(F)C(F)(F)F)n2)nn1-c1ncccc1Br [Compound 2]	3.69	100%	100%	80%						
CNC(=S)c1cc(I)cc(C)c1NC(=O)c1cc(Cn2nnc(C(F)(F)F)n2)nn1-c1ncccc1Cl [Compound 36]	3.73	100%	100%	100%						
Cc1cc(Cl)cc(C(=S)NC(C)(C)C)c1NC(=O)c1cc(Cn2nnc(C(F)(F)F)n2)nn1-c1ncccc1Cl [Compound 6]	4.33	100%	100%		100%	90%	100%			
Cc1nc(C(F)(F)F)nn1Cc1cc(C(=O)Nc2c(Cl)cc(Cl)cc2C(=O)O)n(-c2ncccc2Cl)n1 [Compound 19]	2.68			80%						
O=C(O)c1cc(Cl)cc(Cl)c1NC(=O)c1cc(Cn2ncc(C(F)(F)F)n2)nn1-c1ncccc1Cl [Compound 26]	3.03	100%	100%	90%						
O=C(O)c1cc(Cl)cc(Cl)c1NC(=O)c1cc(Cn2cc(C(F)(F)F)nn2)nn1-c1ncccc1Cl [Compound 28]	2.69		100%	100%						
CNC(=S)c1cc(Cl)cc(C)c1NC(=O)c1cc(Cn2nnc(C(F)(F)F)n2)nn1-c1ncccc1Cl [Compound 7]	3.42	100%	100%	100%	100%		100%	90%		
Cc1cc(C#N)cc(C(=O)O)c1NC(=O)c1cc(Cn2nnc(C(F)(C(F)(F)F)C(F)(F)F)n2)nn1-c1ncccc1Cl [Compound 13]	3.36	100%	100%	80%						
O=C(O)c1cc(Cl)cc(Cl)c1NC(=O)c1cc(Cn2cnc(C(F)F)n2)nn1-c1ncccc1Cl [Compound 12]	2.2				90%				100%	100%
